Measurements as given in ChEMBL document CHEMBL1150069, “Ethnobotanical drug discovery based on medicine men's trials in the African savanna: screening of east African plants for antimicrobial activity II” (1993).
Values after ≈ are worked out from the molar mass of the structure shown.

Columns and labels:
[1] = test system: Saccharomyces cerevisiae; assay: Antimicrobial activity against Saccharomyces cerevisiae IFO 0203 after 2 days by twofold serial broth dilution method; format: functional; conditions: IFO 0203, 48 h
[2] = test system: Micrococcus luteus; assay: Antimicrobial activity against Micrococcus luteus IFO 3333 after 2 days by twofold serial broth dilution method; format: functional; conditions: IFO 3333, 48 h
[3] = test system: Bacillus subtilis; assay: Antimicrobial activity against Bacillus subtilis ATCC 6633 after 2 days by twofold serial broth dilution method; format: functional; conditions: ATCC 6633, 48 h
[4] = test system: Sclerotinia; assay: Antimicrobial activity against Sclerotinia libertiana Ss after 2 days by twofold serial broth dilution method; conditions: 48 h
[5] = test system: Staphylococcus aureus; assay: Antimicrobial activity against Staphylococcus aureus NCTC 8530 after 2 days by twofold serial broth dilution method; format: functional; conditions: NCTC 8530, 48 h
[6] = test system: Proteus vulgaris; assay: Antimicrobial activity against Proteus vulgaris IAM 12003 after 2 days by twofold serial broth dilution method; format: functional; conditions: IAM 12003, 48 h
[7] = test system: Escherichia coli; assay: Antimicrobial activity against Escherichia coli IFO 3545 after 2 days by twofold serial broth dilution method; format: functional; conditions: IFO 3545, 48 h
[8] = test system: Aspergillus niger; assay: Antimicrobial activity against Aspergillus niger ATCC 6275 after 2 days by twofold serial broth dilution method; format: functional; conditions: ATCC 6275, 48 h
[9] = test system: Cyberlindnera jadinii; assay: Antimicrobial activity against Candida utilis ATCC 42402 after 2 days by twofold serial broth dilution method; format: functional; conditions: Williopsis jadinii, ATCC 42402, 48 h
[10] = test system: Mucor mucedo; assay: Antimicrobial activity against Mucor mucedo IFO 7684 after 2 days by twofold serial broth dilution method; format: functional; conditions: IFO 7684, 48 h
[11] = test system: Rhizopus microsporus var. chinensis; assay: Antimicrobial activity against Rhizopus chinensis IFO 4772 after 2 days by twofold serial broth dilution method; format: functional; conditions: IFO 4772, 48 h
[12] = test system: Penicillium crustosum; assay: Antimicrobial activity against Penicillium crustosum Thom after 2 days by twofold serial broth dilution method; format: functional; conditions: 48 h
[13] = test system: Pseudomonas aeruginosa; assay: Antimicrobial activity against Pseudomonas aeruginosa IAM 1007 after 2 days by twofold serial broth dilution method; format: functional; conditions: IAM 1007, 48 h
[14] = test system: Schizosaccharomyces pombe; assay: Antimicrobial activity against Schizosaccharomyces pombe IFO 0342 after 2 days by twofold serial broth dilution method; format: functional; conditions: IFO 0342, 48 h
[15] = test system: Wickerhamomyces anomalus; assay: Antimicrobial activity against Hansenula anomala IFO 0136 after 2 days by twofold serial broth dilution method; format: functional; conditions: IFO 0136, 48 h

SMILES	MIC [1] [µg/mL]	MIC [2] [µg/mL]	MIC [3] [µg/mL]	MIC [4] [µg/mL]	MIC [5] [µg/mL]	MIC [6] [µg/mL]	MIC [7] [µg/mL]	MIC [8] [µg/mL]	MIC [9] [µg/mL]	MIC [10] [µg/mL]	MIC [11] [µg/mL]	MIC [12] [µg/mL]	MIC [13] [µg/mL]	MIC [14] [µg/mL]	MIC [15] [µg/mL]
C=C1[C@@H](C)CC[C@@]2(C)[C@H]1CC=C(C=O)[C@]2(O)C=O	1.56 (≈ 6.28 µM)	> 100	> 100	3.13 (≈ 12.6 µM)	> 100	> 100	> 100	50 (≈ 201 µM)	3.13 (≈ 12.6 µM)	25 (≈ 101 µM)	100 (≈ 403 µM)	50 (≈ 201 µM)	> 100	25 (≈ 101 µM)	25 (≈ 101 µM)
CC1(C)C=Cc2cc([C@@H]3CC(=O)c4ccc(O)cc4O3)ccc2O1 [ABYSSINONE I]	> 100		> 100		> 100		> 100		> 100	> 100		> 100	> 100		
CC1(C)CCC[C@]2(C)[C@H](C=O)C(C=O)=CC[C@@H]12 [EPIPOLYGODIAL]	> 100	> 100	> 100	> 100	> 100	> 100	> 100	> 100	> 100	> 100	> 100	> 100	> 100	> 100	> 100
COc1ccc2c(c1CC=C(C)C)O[C@H]1c3ccc(O)cc3OC[C@@]21O [ERYTHRABYSSIN I]	50 (≈ 141 µM)		6.25 (≈ 17.6 µM)		12.5 (≈ 35.3 µM)		> 100		50 (≈ 141 µM)	25 (≈ 70.5 µM)		> 100	> 100		
CC(C)=CCc1cc([C@@H]2CC(=O)c3c(O)cc(O)cc3O2)cc(CC=C(C)C)c1O [ABYSSINONE V]	> 100		25 (≈ 61.2 µM)		50 (≈ 122 µM)		> 100		> 100	> 100		> 100	> 100		
CC1(C)C=Cc2c(ccc3c2O[C@H]2c4ccc(O)cc4OC[C@@H]32)O1 [PHASEOLIN]	25 (≈ 77.6 µM)		6.25 (≈ 19.4 µM)		12.5 (≈ 38.8 µM)		> 100		50 (≈ 155 µM)	12.5 (≈ 38.8 µM)		> 100	> 100		
CC(C)=CCc1c(O)ccc2c1O[C@H]1c3ccc(O)cc3OC[C@@H]21 [PHASEOLLIDIN]	> 100		25 (≈ 77.1 µM)		50 (≈ 154 µM)		> 100		> 100	100 (≈ 308 µM)		> 100	> 100		
CC(C)=CCc1cc(C2CC(=O)c3c(O)cc(O)cc3O2)cc(CC=C(C)C)c1O (stereo not drawn) [PHASEOLLIN]	100 (≈ 245 µM)		25 (≈ 61.2 µM)		25 (≈ 61.2 µM)		> 100		100 (≈ 245 µM)	50 (≈ 122 µM)		> 100	> 100		
CC(C)=CCc1cc([C@@H]2CC(=O)c3ccc(O)cc3O2)cc(CC=C(C)C)c1O [ABYSSINONE IV]	> 100		12.5 (≈ 31.8 µM)		25 (≈ 63.7 µM)		> 100		> 100	> 100		> 100	> 100		
CC(=O)O[C@@H]1C=C(C=O)[C@](O)(C=O)[C@@]2(C)CCCC(C)(C)[C@H]12 [CINNAMODIAL]	> 100	> 100	> 100	> 100	> 100	> 100	> 100	> 100	> 100	> 100	> 100	> 100	> 100		
CC1(C)CCC[C@]2(C)[C@@H](C=O)C(C=O)=CC[C@@H]12 [POLYGODIAL]	0.78 (≈ 3.33 µM)	> 100	> 100	1.56 (≈ 6.66 µM)	> 100	> 100	> 100	25 (≈ 107 µM)	1.56 (≈ 6.66 µM)	6.25 (≈ 26.7 µM)	12.5 (≈ 53.3 µM)	25 (≈ 107 µM)	> 100	6.25 (≈ 26.7 µM)	1.56 (≈ 6.66 µM)
CC1(C)CCC[C@@]2(C)[C@H]1CC=C(C=O)[C@]2(O)C=O [WARBURGANAL]	3.13 (≈ 12.5 µM)	> 100	> 100	3.13 (≈ 12.5 µM)	> 100	> 100	> 100	50 (≈ 200 µM)	3.13 (≈ 12.5 µM)	25 (≈ 99.9 µM)	100 (≈ 399 µM)	50 (≈ 200 µM)	> 100	12.5 (≈ 49.9 µM)	12.5 (≈ 49.9 µM)
CC(C)=CCc1cc(/C=C/C(=O)c2ccc(O)cc2O)cc(CC=C(C)C)c1O [ABYSSINONE VI]	> 100		> 100		> 100		> 100		> 100	> 100		> 100	> 100		
CC(C)=CCc1cc2c(cc1O)OC[C@H]1c3ccc(O)c(CC=C(C)C)c3O[C@@H]21 [ERYBRAEDIN C]	> 100		3.13 (≈ 7.97 µM)		3.13 (≈ 7.97 µM)		> 100		> 100	> 100		> 100	> 100		
CC1(C)CCC[C@@]2(C)[C@H]1[C@@H](O)C=C(C=O)[C@]2(O)C=O [MUKAADIAL]	> 100	> 100	> 100	100 (≈ 375 µM)	> 100	> 100	> 100	> 100	> 100	> 100	> 100	> 100	> 100	> 100	> 100
CC(C)=CCc1cc([C@@H]2CC(=O)c3ccc(O)cc3O2)ccc1O [ABYSSINONE II]	100 (≈ 308 µM)		50 (≈ 154 µM)		50 (≈ 154 µM)		> 100		100 (≈ 308 µM)	50 (≈ 154 µM)		> 100	> 100		
